Each structure is given as a SMILES string. pIC50: −log10 of the molar value. Bounds are passed on as bounds.

In general, pIC50 refers to the IC50 on a negative log10 scale, so that one unit is a factor of ten. The low end stands for a high IC50, the high end for a low IC50. The term inhibition denotes the relative decrease from the control value, in per cent. Higher therefore signals a response far below the control.

Assay [1] has as its target 72 kDa type IV collagenase (Homo sapiens, UniProt P08253). The experiment in a line: Inhibitory activity against MMP2.
Assay [2] deals with T1, Stromelysin-1 (Homo sapiens, UniProt P08254). The experiment in a line: Inhibitory activity against MMP3.
Target sequence in this assay (P08254 whole entry): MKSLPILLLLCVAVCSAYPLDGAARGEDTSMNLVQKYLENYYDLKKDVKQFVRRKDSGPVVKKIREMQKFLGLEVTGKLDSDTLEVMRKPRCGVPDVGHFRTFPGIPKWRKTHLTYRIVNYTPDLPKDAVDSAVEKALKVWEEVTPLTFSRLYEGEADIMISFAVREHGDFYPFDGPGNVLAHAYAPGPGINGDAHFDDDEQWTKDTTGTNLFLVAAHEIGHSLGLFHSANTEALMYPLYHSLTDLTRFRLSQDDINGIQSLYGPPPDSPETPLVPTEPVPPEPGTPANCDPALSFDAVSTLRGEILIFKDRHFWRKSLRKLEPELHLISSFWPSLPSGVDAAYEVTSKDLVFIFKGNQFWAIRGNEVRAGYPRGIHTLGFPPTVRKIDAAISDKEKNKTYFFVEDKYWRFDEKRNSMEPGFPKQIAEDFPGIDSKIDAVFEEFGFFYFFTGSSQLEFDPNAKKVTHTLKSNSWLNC
A further assay concerns the target Neutrophil collagenase (Homo sapiens, UniProt P22894). Put plainly: Inhibitory activity against MMP8.
For assay [3], the target named is T1, Stromelysin-1. Put plainly: Inhibitory activity against MMP3 at 120 uM.
Target sequence in this assay (P08254 100-477 limits assumed): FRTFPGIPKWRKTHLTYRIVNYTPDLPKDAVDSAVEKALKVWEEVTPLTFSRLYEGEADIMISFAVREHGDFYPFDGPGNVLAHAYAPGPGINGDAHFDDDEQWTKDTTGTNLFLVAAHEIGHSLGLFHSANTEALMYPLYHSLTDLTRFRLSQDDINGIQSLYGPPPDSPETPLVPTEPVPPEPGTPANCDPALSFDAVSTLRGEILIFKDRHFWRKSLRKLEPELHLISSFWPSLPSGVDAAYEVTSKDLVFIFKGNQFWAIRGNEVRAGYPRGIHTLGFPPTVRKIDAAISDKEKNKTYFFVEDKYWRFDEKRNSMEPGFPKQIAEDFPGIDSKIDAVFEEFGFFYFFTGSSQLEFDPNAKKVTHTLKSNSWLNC

72 kDa type IV collagenase, sequence (P08253 whole entry): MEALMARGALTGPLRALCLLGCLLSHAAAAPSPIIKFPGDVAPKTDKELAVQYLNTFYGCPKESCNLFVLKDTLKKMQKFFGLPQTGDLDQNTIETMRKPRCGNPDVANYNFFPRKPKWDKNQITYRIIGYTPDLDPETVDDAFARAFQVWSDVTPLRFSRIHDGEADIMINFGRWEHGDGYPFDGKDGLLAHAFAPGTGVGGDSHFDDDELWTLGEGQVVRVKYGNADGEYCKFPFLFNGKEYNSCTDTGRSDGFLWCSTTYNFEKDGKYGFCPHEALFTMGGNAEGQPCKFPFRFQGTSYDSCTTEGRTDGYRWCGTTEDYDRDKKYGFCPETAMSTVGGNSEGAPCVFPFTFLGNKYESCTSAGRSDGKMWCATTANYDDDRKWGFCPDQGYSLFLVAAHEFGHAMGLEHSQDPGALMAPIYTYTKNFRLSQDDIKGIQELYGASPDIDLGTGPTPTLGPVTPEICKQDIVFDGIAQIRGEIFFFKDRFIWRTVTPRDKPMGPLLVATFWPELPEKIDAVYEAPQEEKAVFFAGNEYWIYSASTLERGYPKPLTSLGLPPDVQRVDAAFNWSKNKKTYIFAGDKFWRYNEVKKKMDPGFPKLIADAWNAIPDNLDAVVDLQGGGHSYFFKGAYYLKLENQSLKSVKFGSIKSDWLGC
Neutrophil collagenase, sequence (P22894 whole entry): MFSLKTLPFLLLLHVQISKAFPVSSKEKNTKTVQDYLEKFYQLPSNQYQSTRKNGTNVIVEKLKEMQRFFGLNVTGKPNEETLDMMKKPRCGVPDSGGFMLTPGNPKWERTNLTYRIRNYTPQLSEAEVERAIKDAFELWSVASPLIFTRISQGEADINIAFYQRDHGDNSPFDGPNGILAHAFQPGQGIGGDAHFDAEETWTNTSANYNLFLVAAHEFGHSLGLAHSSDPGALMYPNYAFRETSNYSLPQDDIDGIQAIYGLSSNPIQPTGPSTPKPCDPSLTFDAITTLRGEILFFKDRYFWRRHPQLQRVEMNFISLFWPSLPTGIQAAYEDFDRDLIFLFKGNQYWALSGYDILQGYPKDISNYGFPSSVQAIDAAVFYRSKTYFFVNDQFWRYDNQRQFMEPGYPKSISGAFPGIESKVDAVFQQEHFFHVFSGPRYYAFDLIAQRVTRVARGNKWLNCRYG

As for `CN(CCOc1ccc(-c2ccc(C#N)cc2)cc1)C(=O)NO`, the values for the pIC50 (in assay [1]; against Stromelysin-1 [2]) were 4.24 and 3.70, respectively.

Turning to `CN(CCc1ccc(Oc2ccccc2)cc1)C(=O)NO`, the results for the pIC50 (in assay [1]; at Stromelysin-1 [2]; against Neutrophil collagenase) were 3.16, 3.42 and 3.00, respectively.

On to `O=C(NO)NCCc1ccc(Oc2ccccc2)cc1`, for which the pIC50 (in assay [1]; against Stromelysin-1 [2]; on Neutrophil collagenase) was below 3.42 each time.

Take `N#Cc1ccc(-c2ccc(OCCNC(=O)NO)cc2)cc1`: the pIC50 (in assay [1]; against Neutrophil collagenase) was below 3.92 in each case. At Stromelysin-1 [3], this molecule gave an inhibition of 22%.

(Values after ChEMBL document CHEMBL1147779, “N-Hydroxyurea as zinc binding group in matrix metalloproteinase inhibition: mode of binding in a complex with MMP-8” (Bioorg Med Chem Lett, 2006).)
